According to patent publication US20140357512A1, “HISTONE DEACETYLASE (HDAC) BIOMARKERS IN MULTIPLE MYELOMA” (priority 2013, published 2014):

System: human myeloma cell line MM.1S
Experiment: SILAC acetylated-lysine peptide profiling, HDAC inhibitor vs DMSO (light/heavy ratio)
Format: cell-based
Source text: An embodiment of the invention comprises utilizing the SILAC method in order to quantitate changes in protein expression between two or more populations of cells. The SILAC method is a technique based on mass spectrometry that detects differences in protein abundance among samples using non-radioactive isotopic labeling. The SILAC method is known in the art, and described in detail in Ong et al., “Stable Isotope Labeling by Amino Acids in Cell Culture, SILAC, as a Simple and Accurate Approach to Expression Proteomics”, Molecular & Cellular Proteomics, vol. 1, pp. 376-386 (2002), which is incorporated herein by reference in its entirety.
Briefly, the SILAC method involves growing two populations of cells in cell culture. The first population of cells is grown in growth media containing normal amino acids (“normal media”). The second population of cells is grown in media lacking a standard essential amino acid (such as lysine), but is then supplemented with a non-radioactive, isotopically labeled form of that essential amino acid (such as lysine labeled with ^13C atoms, rather than normal ^12C atoms), which is called “heavy media”. When the two populations of cells are each growing in the medium, they incorporate the amino acids into all of their proteins. The growth of cells maintained in the heavy media is no different from that in normal media. All peptides containing the heavy amino acids are heavier than their normal counterparts. The cells from each of the two populations of cells are lysed. The lysates from each of the two cell populations are then combined. The combined cell lysates are then analyzed by mass spectrometry. Pairs of chemically identical peptides of different stable isotope composition can be differentiated in a mass spectrometer due to their difference in mass. The ratio of peak intensities in the mass spectrum for such peptide pairs reflects the abundance ratio for the two proteins.
This example describes SILAC studies that were performed to compare the effects of three different HDAC inhibitors (Compound A, Compound B, and tubastatin A) to a control on a human multiple myeloma cell line. The HDAC inhibitors were also compared amongst themselves to determine differences in their effects.
A human myeloma cell line MM.1S was grown using either ^12C (light) or ^13C (heavy) lysine containing culture medium. The “heavy” cells were treated with DMSO as the control, and the “light” cells were treated with a single HDAC inhibitor at 37° C. for 6 hours. The heavy and light cells were lysed, and the lysates were mixed in 1:1 ratio and digested with the protease trypsin. The acetylated lysine containing peptides (due to the action of the HDAC inhibitor) in the digested peptide pool were captured by a non-specific anti-acetylated lysine antibody cocktail (the antibodies identify both light and heavy acetylated peptides), and subjected to mass spectrometry analysis in order to identify thousands of individual peptides.
Thousands of peptides were identified in pairs (^12C and ^13C) due to their known mass differences. The amino acid sequence and quantitative ratio (Light/Heavy) of a given peptide in two differentially treated cell lysates were then determined and annotated with their possible protein (gene) sources.
As stated above, three HDAC inhibitors (Compound A, Compound B, and Tubastatin A) were used. Thus, the SILAC method was performed three times, with a different HDAC inhibitor compared to a control each time. Accordingly, there are three pairs of quantitative data in the table below, i.e., Compound A:DMSO, Compound B:DMSO, and Tubastatin A:DMSO. A cut-off of 1.30 fold of change (increase or decrease) was then used to determine “changed” or “+” in the table, and any peptides with a fold of change less than 1.3 fold were determined to be “unchanged” or “0” in the table. Those peptides that were not identified were marked as “NA” in the table. […]

Compound: O=C(NO)c1cnc(NC2(c3cccc(F)c3)CCCCC2)nc1 [Compound B, 2-((1-(3-fluorophenyl)cyclohexyl)amino)-N-hydroxypyrimidine-5-carboxamide]
- light to heavy ratio (L/H ratio) of acetylated peptide SEVDMLK(ac)IR (SEQ ID NO: 295) (Putative annexin A2-like protein [302], ANXA2P2, drug:DMSO): 0.00 log 2
- light to heavy ratio (L/H ratio) of acetylated peptide K(ac)[…] (SEQ ID NO: 358) (Putative annexin A2-like protein [310], ANXA2P2, drug:DMSO): 0.66 log 2
- L/H ratio of acetylated peptide (QLNDVK(ac)[…] (SEQ ID NO: 386), Scavenger mRNA-decapping enzyme DcpS [128], DCPS): 0.97 log 2
- L/H ratio of acetylated peptide EIDSVK(ac)[…] (SEQ ID NO: 73) (RAC2 [153], log 2 scale, drug vs DMSO): 0.00
- light to heavy ratio (L/H ratio) of acetylated peptide, log 2 scale (RPAVK(ac)QFHDSK (SEQ ID NO: 203), 60S ribosomal protein L18a [143], RPL18A): 0.00
- L/H ratio of acetylated peptide FIDTTSK(ac)FGHGR (SEQ ID NO: 83) (RPL3L [373], log 2 scale, drug vs DMSO): 0.00
- L/H ratio of acetylated peptide AASLK(ac)SNYNLPMHK (SEQ ID NO: 84) (RPL4 [274], log 2 scale, drug vs DMSO): 0.00
- L/H ratio of acetylated peptide NFLGEK(ac)YIR (SEQ ID NO: 86) (RPL9 [121], log 2 scale, drug vs DMSO): 0.00
- L/H ratio of acetylated peptide […](ac)SR (SEQ ID NO: 79) (RPL18A [41], log 2 scale, drug vs DMSO): 0.00
- L/H ratio of acetylated peptide YLK(ac)YLTK (SEQ ID NO: 81) (RPL22 [84], log 2 scale, drug vs DMSO): 0.00
- L/H ratio of acetylated peptide INFDK(ac)YHPGYFGK (SEQ ID NO: 82) (RPL27A [47], log 2 scale, drug vs DMSO): 0.00
- L/H ratio of acetylated peptide LK(ac)[…] (SEQ ID NO: 89) (RPS4X [53], log 2 scale, drug vs DMSO): 0.00
- L/H ratio of acetylated peptide SFQK(ac)IQVR (SEQ ID NO: 90) (RPS7 [74], log 2 scale, drug vs DMSO): 0.00
- L/H ratio of acetylated peptide […](ac)GK (SEQ ID NO: 87) (RPS23 [135], log 2 scale, drug vs DMSO): 0.00
- L/H ratio of acetylated peptide LAVLK(ac)YYK (SEQ ID NO: 88) (RPS27A [104], log 2 scale, drug vs DMSO): 0.00
- light to heavy ratio (L/H ratio) of acetylated peptide […](ac)YK (SEQ ID NO: 360) (Rho GDP-dissociation inhibitor 2 [47], ARHGDIB, drug:DMSO): 0.60 log 2
- light to heavy ratio (L/H ratio) of acetylated peptide […](ac)R (SEQ ID NO: 334) (S1 IF1 type family protein [56], EIF1AXP1, drug:DMSO): −0.40 log 2
- L/H ratio of acetylated peptide LAELK(ac)QECLAR (SEQ ID NO: 94) (SARNP 17], log 2 scale, drug vs DMSO): 0.00
- L/H ratio of acetylated peptide (ac)ATETVELHK(ac)LK (SEQ ID NO: 93) (SARNP [10], log 2 scale, drug vs DMSO): 0.00
- L/H ratio of acetylated peptide (SELEFK(ac)FNR (SEQ ID NO: 422), Sialic acid synthase [61], NANS): 0.53 log 2
- L/H ratio of acetylated peptide EHTALLK(ac)IEGVYAR (SEQ ID NO: 630, 60S ribosomal protein L35a [29], RPL35A): 0.00 log 2
- L/H ratio of acetylated peptide NDEELNK(ac)LLGR (SEQ ID NO: 634, Histone H2A type 1-B/E [96], HIST1H2AE, HIST1H2AB, HIST1H2AD, HIST1H2AG, HIST1H2AK, HIST1H2AL, HIST1H2AM, HIST1H2AJ, HIST1H2AI): 0.00 log 2
- L/H ratio of acetylated peptide TFK(ac)[…] (SEQ ID NO: 636, 60S ribosomal protein L3 [103], SNORD43, RPL3): 0.00 log 2
- L/H ratio of acetylated peptide YK(ac)[…] (SEQ ID NO: 637, Protein disulfide-isomerase [328], P4HB): 0.00 log 2
- L/H ratio of acetylated peptide NAEK(ac)YAEEDRR (SEQ ID NO: 638, Stress-70 protein mitochondrial [567], HSPA9): 0.00 log 2
- L/H ratio of acetylated peptide […](ac)DR (SEQ ID NO: 639, pyruvate dehydrogenase E1 component subunit alpha somatic form mitochondrial isoform 2 precursor [359], PDHA1): 0.00 log 2
- L/H ratio of acetylated peptide VEYFLK(ac)WK (SEQ ID NO: 645, Chromobox protein homolog 3 [50], CBX3): 0.00 log 2
- L/H ratio of acetylated peptide HYK(ac)TDFDK (SEQ ID NO: 646, Isocitrate dehydrogenase [NADP] mitochondrial [275], IDH2): 0.00 log 2
- L/H ratio of acetylated peptide EGYAWAEDK(ac)EHCEEYGR (SEQ ID NO: 647, tRNA-splicing ligase RtcB homolog [190], C22orf28): 0.00 log 2
- L/H ratio of acetylated peptide […](ac)QNK (SEQ ID NO: 650, Dihydrolipoyl dehydrogenase mitochondrial [143], DLD): 0.00 log 2
- L/H ratio of acetylated peptide FYVK(ac)DHR (SEQ ID NO: 651, CDGSH iron-sulfur domain-containing protein 1 [37], CISD1): 0.00 log 2
- L/H ratio of acetylated peptide HIVK(ac)EFK (SEQ ID NO: 653, Stress-70 protein mitochondrial [288], HSPA9): 0.00 log 2
- L/H ratio of acetylated peptide MYKEEGLK(ac)AFYK (SEQ ID NO: 654, Isoform A of Phosphate carrier protein mitochondrial [214], SLC25A3): 0.00 log 2
- L/H ratio of acetylated peptide […](ac)EFR (SEQ ID NO: 657, Isoform 1 of Clathrin heavy chain 1 [1264], CLTC): 0.00 log 2
- L/H ratio of acetylated peptide YELTGK(ac)FER (SEQ ID NO: 659, Annexin A6 [81], ANXA6): 0.00 log 2
- L/H ratio of acetylated peptide LAMVK(ac)AEPDVK (SEQ ID NO: 661, NADH dehydrogenase [ubiquinone] 1 alpha subcomplex subunit 5 [60], NDUFA5): 0.00 log 2
- L/H ratio of acetylated peptide NEK(ac)LFYR (SEQ ID NO: 662, NADP-dependent malic enzyme mitochondrial [119], ME3): 0.00 log 2
- L/H ratio of acetylated peptide DLSLDDFK(ac)GK (SEQ ID NO: 664, Thioredoxin-dependent peroxide reductase mitochondrial [91], PRDX3): 0.00 log 2
- L/H ratio of acetylated peptide LTSDDVK(ac)EQIYK (SEQ ID NO: 669, 40S ribosomal protein S13 [34], RPS13): 0.00 log 2
- L/H ratio of acetylated peptide SCNCLLLK(ac)[…] (SEQ ID NO: 670, Isoform alpha-enolase of Alpha-enolase [343], ENO1): 0.00 log 2
- L/H ratio of acetylated peptide […](ac)FLIK (SEQ ID NO: 671, Methyltransferase-like protein 7A [105], METTL7A): 0.00 log 2
- L/H ratio of acetylated peptide […](ac)QLK (SEQ ID NO: 672, Annexin A6 [442], ANXA6): 0.00 log 2
- L/H ratio of acetylated peptide LENDK(ac)SFR (SEQ ID NO: 678, Isoform 1 of Enoyl-CoA delta isomerase 1 mitochondrial [89], ECI1): 0.00 log 2
- L/H ratio of acetylated peptide LVAMK(ac)FLR (SEQ ID NO: 679, Isoform 1 of Nucleoside diphosphate kinase B [39], NME1, NME2, NME1-NME2): 0.00 log 2
- L/H ratio of acetylated peptide SGK(ac)YDLDFK (SEQ ID NO: 688, Isoform alpha-enolase of Alpha-enolase [256], ENO1): 0.00 log 2
- L/H ratio of acetylated peptide LYGDLK(ac)HLK (SEQ ID NO: 689, cDNA FLJ61478 highly similar to Succinate dehydrogenase (ubiquinone) flavoprotein subunit mitochondrial [547], SDHA): 0.00 log 2
- L/H ratio of acetylated peptide TISAK(ac)YAEER (SEQ ID NO: 692, Isoform 1 of Myosin-9 [1459], MYH9): 0.00 log 2
- L/H ratio of acetylated peptide (ac)ASNK(ac)TTLQK (SEQ ID NO: 693, Chromobox protein homolog 3 [5], CBX3): 0.00 log 2
- L/H ratio of acetylated peptide KAVTK(ac)VQK (SEQ ID NO: 699, Histone H2B type 2-F [21], HIST2H2BF): 0.00 log 2
- L/H ratio of acetylated peptide ILQK(ac)QGFK (SEQ ID NO: 700, Dihydrolipoyl dehydrogenase mitochondrial [267], DLD): 0.00 log 2
- L/H ratio of acetylated peptide NK(ac)FGAPQK (SEQ ID NO: 701, Trifunctional enzyme subunit alpha mitochondrial [353], HADHA): 0.00 log 2
- L/H ratio of acetylated peptide VTAVHK(ac)ANIMK (SEQ ID NO: 702, Isocitrate dehydrogenase [NAD] subunit gamma mitochondrial [221], IDH3G): 0.00 log 2
- L/H ratio of acetylated peptide ACPEK(ac)HFAFK (SEQ ID NO: 703, Protein FAM3C [67], FAM3C): 0.00 log 2
- L/H ratio of acetylated peptide QLAQK(ac)YNCDK (SEQ ID NO: 705, Ubiquitin-60S ribosomal protein L40 [88], UBA52): 0.00 log 2
- L/H ratio of acetylated peptide […](ac)EDVK (SEQ ID NO: 706, Isoform 1 of ATP synthase subunit d mitochondrial [95], ATP5H): 0.00 log 2
- L/H ratio of acetylated peptide ADK(ac)LAEEHSS (SEQ ID NO: 708, ATP synthase subunit beta mitochondrial [522], ATP5B): 0.00 log 2
- L/H ratio of acetylated peptide DFGSFDK(ac)FK (SEQ ID NO: 709, Superoxide dismutase [Mn] mitochondrial [130], SOD2): 0.00 log 2
- L/H ratio of acetylated peptide CSK(ac)LPSSTK(ac)SGWPR (SEQ ID NO: 711, cDNA FLJ75110 highly similar to Homo sapiens PHD finger protein 15 (PHF15) mRNA 3[2:38], PHF15): 0.00 log 2
- L/H ratio of acetylated peptide KAINK(ac)AQK (SEQ ID NO: 712, Histone H2B type 1-M [21], HIST1H2BM): 0.00 log 2
- L/H ratio of acetylated peptide TDLEK(ac)[…] (SEQ ID NO: 714, Putative annexin A2-like protein [157], ANXA2P2): 0.00 log 2
- L/H ratio of acetylated peptide KGIEK(ac)NLGIGK (SEQ ID NO: 718, Malate dehydrogenase mitochondrial [301], MDH2): 0.00 log 2
- L/H ratio of acetylated peptide QLYNIYAK(ac)HTK (SEQ ID NO: 720, Putative ATP-dependent Clp protease proteolytic subunit mitochondrial [211], CLPP): 0.00 log 2
- L/H ratio of acetylated peptide GKGDK(ac)AQIEK (SEQ ID NO: 721, 60 kDa heat shock protein mitochondrial [364], HSPD1): 0.00 log 2
- L/H ratio of acetylated peptide K(ac)FLVHNVK (SEQ ID NO: 722, 60S ribosomal protein L32 [76], RPL32): 0.00 log 2
